# Patent US11739120B2, “Water soluble salts of lipidated peptides and methods for preparing and using the same” (Bridge Biotherapeutics, Inc., priority 2018, dated 2023)
# Residues, ends and D or L forms follow the SMILES beside them. *: point of attachment. Palmitoyl = CCCCCCCCCCCCCCCC(=O)*
# Assays:
# [1] = Solubility of amorphous, Form A and Form E of Compound I-1 in water (shaken at 25° C., HPLC); type: physicochemical; details: water; 25° C.
# Experimental: The solubility of amorphous, Form A or E of Compound I-1 in water was further studied. Specifically, about 250 mg Compound I-1 in amorphous, Forms A and E were each suspended in a 2 mL HPLC vial with 0.9 mL of water. Each suspension was then shaken at 25° C. under 1000 rpm. The suspensions were analyzed at 1 h and 24 h. In particular, at either the 1 h or 24 h time point, the slurries were centrifuged and analyzed by HPLC. The pH values of the mother liquors were measured, and the residues were characterized by XRPD.
# [2] = Aqueous solubility of Compound I-1 in the presence of excipients; type: physicochemical; details: 25° C.
# Experimental: Specifically, about 50 mg of Compound I-1 was weighed into a 1.5-mL HPLC vial, and 0.2 mL of different media was then added to each vial. The mixtures were shaken at 25° C. under 700 rpm. After 24 hours of shaking, the slurries were centrifuged twice and analyzed. The supernatant was analyzed by HPLC.
# [3] = Physical stability of Compound I-1 in meglumine solutions; type: physicochemical; details: for Appearance: precipitation after (storage time) / Appearance: no precipitation until (storage time): vehicle Meglumine, 25° C.
# Experimental: In contrast, an aqueous formulation with a concentration of Compound I-1 of 200 mg/mL, without meglumine, started forming precipitates after storing 1 day at 25° C.
# [4] = Stabilities of amorphous Compound I-1 (ICH guideline, XRPD); type: physicochemical; details: amorphous; 25±2° C./60±5% RH and 40±2° C./75±5% RH; ICH guideline
# Experimental: Stabilities of amorphous Compound I-1 were also conducted according to ICH guideline.
# [5] = tested on: DSS induced colitis animal model; assay: DSS induced colitis animal model; type: in vivo; details: formulations containing Compound I-1
# Excerpt: The compound of Formula I (e.g., Formula I-B or I-C, or any one of Compounds I-1 to I-10) described herein is useful for treating various diseases or disorders discussed herein. […] In addition, it was shown that effective concentration of the acid compounds can be retained in a targeted tissue (e.g., small intestinal tissues, large intestinal tissues, appendix tissues) for a sufficient time. […] Those skilled in the art would expect that the salts of Compound I-1-Acid, such as Compound I-1, be similarly efficacious.
# [6] = Aqueous solubility of Compound I-1 in the presence of excipients; type: physicochemical; details: approximate solubility by visual observation
# [7] = Approximate solubility of Compound I-1-Acid in different solvents (manual dilution, visual observation); type: physicochemical
# Experimental: The solubility test was conducted by manual dilution combined with visual observation. As shown below, Compound I-1-Acid has poor solubility (<1 mg/mL) in most organic solvents and water (Table 1).
# [8] = Water solubility of Compound I-1-Acid (further investigation); type: physicochemical
# [9] = tested on: inflammatory bowel diseases, multiple sclerosis, and septicemia; details: shown in U.S. application Ser. No. 15/205,853; cited from earlier work
# [10] = Approximate solubility of Compound I-2 (amorphous) at room temperature; type: physicochemical
# Experimental: The solubility of Compound I-2 (amorphous) at room temperature was tested using a method similar to those described in Examples 4 and 5. The solubility test results are described in Table 6.
structure (smiles),measurement,setting,value
"CCCCCCCCCCCCCCCC(=O)N1CCC[C@H]1C(=O)N1CCC[C@H]1C(=O)NCC(=O)N[C@@H](Cc1ccc(O)cc1)C(=O)[O-].[Na+] [Compound I-1, sodium palmitoyl-L-prolyl-L-prolylglycyl-L-tyrosinate] (Palmitoyl-PPGY-OH)",solubility kinetic,[1],~200000 µg/mL
same,solubility at 24 h,"[2]; water with Cremophor RH 40 1% (w/v), HPLC",231000 µg/mL
same,solubility at 24 h,"[2]; water with Cremophor RH 40 10% (w/v), HPLC",209000 µg/mL
same,solubility at 24 h,"[2]; water with Meglumine 1% (w/v), HPLC",190000 µg/mL
same,solubility at 24 h,[2]; water with Meglumine 10% (w/v),> 270000 µg/mL
same,solubility at 24 h,"[2]; water with TWEEN 80 1% (w/v), HPLC",215000 µg/mL
same,solubility at 24 h,"[2]; water with TWEEN 80 10% (w/v), HPLC",198000 µg/mL
same,physical stability of solution,"[3]; 200 mg/mL in water with 3%, 4%, or 5% meglumine, stored at 25° C., 13 days",good physical stability
same,physical stability of solution,"[3]; stored at 5° C., 5 mg/mL solution formulation with meglumine (2-5%)",not physically stable
same,Appearance: precipitation after (storage time),"[3]; 2%, 200 mg/mL",Precipitation after 2 days
same,Appearance: precipitation after (storage time),"[3]; 2%, 250 mg/mL",Precipitation after 1 day
same,Appearance: no precipitation until (storage time),"[3]; 3%, 200 mg/mL",≥ 3 weeks
same,Appearance: no precipitation until (storage time),"[3]; 4%, 200 mg/mL",≥ 3 weeks
same,Appearance: no precipitation until (storage time),"[3]; 5%, 200 mg/mL",≥ 3 weeks
same,Appearance: precipitation after (storage time),"[3]; 5%, 250 mg/mL",Precipitation after 5 days
same,Appearance: precipitation after (storage time),"[3]; 5%, 300 mg/mL",Precipitation after 3 days
same,stable for (storage time),[4],≥ 6 months
same,total colitis scores,[5],statistically significant improvement
same,solubility,[6]; water with HPMC E3 5% (w/v),< 250000 µg/mL
same,solubility,[6]; water with HPβCD 5% (w/v),< 250000 µg/mL
same,solubility,[6]; water with Meglumine 2% (w/v),> 250000 µg/mL
same,solubility,[6]; water with Meglumine 5% (w/v),> 250000 µg/mL
same,solubility,"[6]; water with Meglumine:Cremophor RH 40 (1:1, w/w) 10% (w/v)",> 250000 µg/mL
CCCCCCCCCCCCCCCC(=O)N1CCC[C@H]1C(=O)N1CCC[C@H]1C(=O)NCC(=O)N[C@@H](Cc1ccc(O)cc1)C(=O)O [Compound I-1-Acid] (Palmitoyl-PPGY-OH),solubility,"[7]; 1,4-Dioxane, room temperature",< 1000 µg/mL
same,solubility,"[7]; 1-butanol, room temperature",< 1000 µg/mL
same,solubility,"[7]; 2-Methyl Tetrahydrofuran, room temperature",< 1000 µg/mL
same,solubility,"[7]; ACN—H2O (1:1), room temperature",< 1000 µg/mL
same,solubility,"[7]; Acetone-H2O (1:2), room temperature",< 1000 µg/mL
same,solubility,"[7]; Acetone, room temperature",< 1000 µg/mL
same,solubility,"[7]; Acetonitrile, room temperature",< 1000 µg/mL
same,solubility,"[7]; Cyclohexane, room temperature",< 1000 µg/mL
same,solubility,"[7]; EtOH—H2O (1:1), room temperature",< 1000 µg/mL
same,solubility,"[7]; EtOH—H2O (3:1), room temperature",< 1000 µg/mL
same,solubility,"[7]; Ethanol, room temperature",< 1000 µg/mL
same,solubility,"[7]; Ethyl acetate, room temperature",< 1000 µg/mL
same,solubility,"[7]; Heptane, room temperature",< 1000 µg/mL
same,solubility,"[7]; Isopropyl acetate, room temperature",< 1000 µg/mL
same,solubility,"[7]; Isopropyl alcohol, room temperature",< 1000 µg/mL
same,solubility,"[7]; MeOH—H2O (1:1), room temperature",< 1000 µg/mL
same,solubility,"[7]; MeOH—H2O (3:1), room temperature",< 1000 µg/mL
same,solubility,"[7]; Methyl ethyl ketone, room temperature",< 1000 µg/mL
same,solubility,"[7]; Methyl isobutyl ketone, room temperature",< 1000 µg/mL
same,solubility,"[7]; Methyl t-butyl ether, room temperature",< 1000 µg/mL
same,solubility,"[7]; N-methyl pyrrolidone, room temperature",1000 to 5000 µg/mL
same,solubility,"[7]; Tetrahydrofuran, room temperature",< 1000 µg/mL
same,solubility,"[7]; Toluene, room temperature",< 1000 µg/mL
same,solubility,"[7]; Water, room temperature",< 1000 µg/mL
same,solubility,"[7]; most organic solvents and water, ambient laboratory temperature",< 1000 µg/mL
same,solubility,[8],< 2 µg/mL
same,"treating inflammatory bowel diseases, multiple sclerosis, and septicemia",[9],effective
CCCCCCCCCCCCCCCC(=O)N1CCC[C@H]1C(=O)N1CCC[C@H]1C(=O)NCC(=O)N[C@@H](Cc1ccc(O)cc1)C(=O)[O-].[K+] [Compound I-2 (amorphous)] (Palmitoyl-PPGY-OH),solubility,"[10]; 1,4-Dioxane",< 1000 µg/mL
same,solubility,[10]; 1-butanol,1000 to 5000 µg/mL
same,solubility,[10]; 2-Methyl Tetrahydrofuran,< 1000 µg/mL
same,solubility,[10]; Acetone,< 1000 µg/mL
same,solubility,[10]; Acetone: H2O (97:3),< 1000 µg/mL
same,solubility,[10]; Acetonitrile,< 1000 µg/mL
same,solubility,[10]; Acetonitrile:H2O (95:5),< 1000 µg/mL
same,solubility,[10]; Cyclohexane,< 1000 µg/mL
same,solubility,[10]; DMF,50000 to 100000 µg/mL
same,solubility,[10]; DMSO,50000 to 100000 µg/mL
same,solubility,[10]; Ethanol,50000 to 100000 µg/mL
same,solubility,[10]; Ethanol:H2O (90:10),25000 to 50000 µg/mL
same,solubility,[10]; Ethanol:H2O (95:5),25000 to 50000 µg/mL
same,solubility,[10]; Ethyl acetate,< 1000 µg/mL
same,solubility,[10]; Heptane,< 1000 µg/mL
same,solubility,[10]; Isopropyl acetate,< 1000 µg/mL
same,solubility,[10]; Isopropyl alcohol,1000 to 5000 µg/mL
same,solubility,[10]; Methanol,> 100000 µg/mL
same,solubility,[10]; Methanol:H2O (90:10),> 100000 µg/mL
same,solubility,[10]; Methanol:H2O (95:5),> 100000 µg/mL
same,solubility,[10]; Methyl ethyl ketone,< 1000 µg/mL
same,solubility,[10]; Methyl isobutyl ketone,< 1000 µg/mL
same,solubility,[10]; Methyl t-butyl ether,< 1000 µg/mL
same,solubility,[10]; N-methyl pyrrolidone,50000 to 100000 µg/mL
same,solubility,[10]; Tetrahydrofuran,< 1000 µg/mL
same,solubility,[10]; Tetrahydrofuran:H2O (95:5),50000 to 100000 µg/mL
same,solubility,[10]; Toluene,< 1000 µg/mL
same,solubility,[10]; Water,> 100000 µg/mL
